In publication PMC11855478, “Bicyclic N,S-Acetals Containing Fused Cysteine-Amide System as New Heterocyclic Class Targeting Human Farnesyltransferase (FTase-h)” (International Journal of Molecular Sciences, 2025):

Tests used:
HT29 (Colon Cancer) = experiment: NCI one dose, HT29; format: cell-based, human; conditions: HT29, 1.00E-5 Molar one dose
Method: (§1) 3.4. Cell Proliferation Assay
(§2) Selected compounds were tested on a panel of 60 human cancer cell lines at the National Cancer Institute (NCI), Germantown, MD, USA. The cytotoxicity studies were conducted using a 48 h exposure protocol using the sulfo-rhodamine B assay.

TK-10 (Renal Cancer) = experiment: NCI one dose, TK-10; format: cell-based, human; conditions: TK-10, 1.00E-5 Molar one dose
Method: as §1, §2

[1] = test system: HOP-62 (Non-Small Cell Lung Cancer); experiment: NCI one dose, HOP-62; format: cell-based, human; conditions: HOP-62, 1.00E-5 Molar one dose
Method: as §1, §2

[2] = test system: NCI/ADR-RES (Ovarian Cancer); experiment: NCI one dose, NCI/ADR-RES; format: cell-based, human; conditions: 1.00E-5 Molar one dose
Method: as §1, §2

[3] = test system: MDA-MB-468 breast cancer cells; experiment: NCI one dose, MDA-MB-468; format: cell-based, human; conditions: MDA-MB-468, 1.00E-5 Molar one dose
Method: as §1, §2

M14 (Melanoma) = experiment: NCI one dose, M14; format: cell-based, human; conditions: M14, 1.00E-5 Molar one dose
Method: as §1, §2

[4] = molecular target: human farnesyltransferase (FTase) (Homo sapiens, UniProt P49354+P49356); experiment: FTase inhibitory assay (fluorescence, Dansyl-GCVLS); format: biochemical; conditions: inhibition of human FTase at 100 μM of tested compound; mean of two experiments
Procedure, shortened: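 Partially purified recombinant FTase with Dansyl-GCVLS and farnesyl pyrophosphate in Tris/HCl pH 7.5 (DTT, MgCl2, ZnCl2, octyl-glucoside); fluorescence (ex 340/em 486 nm) read 15 min at 30 °C. IC50 by regression for compounds inhibiting >60% at 100 µM; kinetics varied FPP (Dns-GCVLS 2.5 μM) or peptide (FPP 10 μM).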

[5] = test system: NCI-H460 (Non-Small Cell Lung Cancer); experiment: NCI one dose, NCI-H460; format: cell-based, human; conditions: NCI-H460, 1.00E-5 Molar one dose
Method: as §1, §2

[6] = test system: NCI-H522 non-small cell lung cancer cells; experiment: NCI cell proliferation, NCI-H522; format: cell-based, human; conditions: for inhibition at 10 µM: read-out: % Cancer cell growth Inhibition (NCI-H522); for Growth Percent: NCI-H522, 1.00E-5 Molar one dose
Method: as §1, §2

SK-MEL-28 (Melanoma) = experiment: NCI one dose, SK-MEL-28; format: cell-based, human; conditions: SK-MEL-28, 1.00E-5 Molar one dose
Method: as §1, §2

OVCAR-8 (Ovarian Cancer) = experiment: NCI one dose, OVCAR-8; format: cell-based, human; conditions: OVCAR-8, 1.00E-5 Molar one dose
Method: as §1, §2

SW-620 (Colon Cancer) = experiment: NCI one dose, SW-620; format: cell-based, human; conditions: SW-620, 1.00E-5 Molar one dose
Method: as §1, §2

HCT-116 (Colon Cancer) = experiment: NCI one dose, HCT-116; format: cell-based, human; conditions: HCT-116, 1.00E-5 Molar one dose
Method: as §1, §2

[7] = test system: HOP-92 (Non-Small Cell Lung Cancer); experiment: NCI one dose, HOP-92; format: cell-based, human; conditions: HOP-92, 1.00E-5 Molar one dose
Method: as §1, §2

[8] = test system: MDA-MB-231/ATCC (Breast Cancer); experiment: NCI one dose, MDA-MB-231/ATCC; format: cell-based, human; conditions: 1.00E-5 Molar one dose
Method: as §1, §2

MCF7 (Breast Cancer) = experiment: NCI one dose, MCF7; format: cell-based, human; conditions: MCF7, 1.00E-5 Molar one dose
Method: as §1, §2

SK-MEL-5 (Melanoma) = experiment: NCI one dose, SK-MEL-5; format: cell-based, human; conditions: SK-MEL-5, 1.00E-5 Molar one dose
Method: as §1, §2

HCT-15 (Colon Cancer) = experiment: NCI one dose, HCT-15; format: cell-based, human; conditions: HCT-15, 1.00E-5 Molar one dose
Method: as §1, §2

DU-145 (Prostate Cancer) = experiment: NCI one dose, DU-145; format: cell-based, human; conditions: DU-145, 1.00E-5 Molar one dose
Method: as §1, §2

MDA-MB-435 (Melanoma) = experiment: NCI one dose, MDA-MB-435; format: cell-based, human; conditions: MDA-MB-435, 1.00E-5 Molar one dose
Method: as §1, §2

PC-3 (Prostate Cancer) = experiment: NCI one dose, PC-3; format: cell-based, human; conditions: PC-3, 1.00E-5 Molar one dose
Method: as §1, §2

SNB-75 (CNS Cancer) = experiment: NCI one dose, SNB-75; format: cell-based, human; conditions: SNB-75, 1.00E-5 Molar one dose
Method: as §1, §2

786-0 (Renal Cancer) = experiment: NCI one dose, 786-0; format: cell-based, human; conditions: 786-0, 1.00E-5 Molar one dose
Method: as §1, §2

MOLT-4 (Leukemia) = experiment: NCI one dose, MOLT-4; format: cell-based, human; conditions: MOLT-4, 1.00E-5 Molar one dose
Method: as §1, §2

SR (Leukemia) = experiment: NCI one dose, SR; format: cell-based, human; conditions: 1.00E-5 Molar one dose
Method: as §1, §2

[9] = test system: A549/ATCC (Non-Small Cell Lung Cancer); experiment: NCI one dose, A549/ATCC; format: cell-based, human; conditions: 1.00E-5 Molar one dose
Method: as §1, §2

UO-31 renal cancer cells = experiment: NCI one dose, UO-31; format: cell-based, human; conditions: UO-31, 1.00E-5 Molar one dose
Method: as §1, §2

Row | % FTI [4] [%] | Compound | Growth Percent (HT29 (Colon Cancer)) [%] | Growth Percent (TK-10 (Renal Cancer)) [%] | Growth Percent [1] [%] | Growth Percent [2] [%] | Growth Percent [3] [%] | Growth Percent (M14 (Melanoma)) [%] | Growth Percent [5] [%] | inhibition at 10 µM ([6]; Homo sapiens, NCI-H522) [%] | Growth Percent [6] [%] | Growth Percent (SK-MEL-28 (Melanoma)) [%] | Growth Percent (OVCAR-8 (Ovarian Cancer)) [%] | Growth Percent (SW-620 (Colon Cancer)) [%] | Growth Percent (HCT-116 (Colon Cancer)) [%] | Growth Percent [7] [%] | Growth Percent [8] [%] | Growth Percent (MCF7 (Breast Cancer)) [%] | Growth Percent (SK-MEL-5 (Melanoma)) [%] | Growth Percent (HCT-15 (Colon Cancer)) [%] | Growth Percent (DU-145 (Prostate Cancer)) [%] | further results
1 | 62 | COc1ccc(CNC(=O)[C@@H]2CS[C@H]3c4ccccc4C(=O)N23)cc1OC [4aI] | 80.71 | 87.34 | 98.51 | 99.35 | 102.27 | 107.33 | 111.19 | 36 | 63.65 | 110.57 | 88.68 | 102.54 | 98.84 | 93.36 | 102.55 | 99.04 | 102.31 | 109.55 | 107.46 | GI50 ([6]; Homo sapiens, NCI-H522): 20.8 µM; Growth Percent (MDA-MB-435 (Melanoma)): 107.42%; Growth Percent (PC-3 (Prostate Cancer)): 88.12%; Growth Percent (SNB-75 (CNS Cancer)): 95.63%; Growth Percent (786-0 (Renal Cancer)): 106.53%; Growth Percent (MOLT-4 (Leukemia)): 99.18%; Growth Percent (SR (Leukemia)): 74.16%; Growth Percent [9]: 74.91%; Growth Percent (UO-31 renal cancer cells): 94.41%
2 | 22 | C[C@@]12SC[C@@H](C(=O)NCc3ccc(Cl)cc3Cl)N1C(=O)c1ccccc12 [4bH] | 83.74 | 105.53 | 103.25 | 96.56 | 88.80 | 108.31 | 104.39 | 28 | 71.73 | 108.92 | 93.06 | 104.06 | 96.09 | 106.23 | 99.81 | 89.35 | 92.84 | 105.31 | 109.42 | Growth Percent (MDA-MB-435 (Melanoma)): 102.36%; Growth Percent (PC-3 (Prostate Cancer)): 78.16%; Growth Percent (SNB-75 (CNS Cancer)): 99.75%; Growth Percent (786-0 (Renal Cancer)): 103.58%; Growth Percent (MOLT-4 (Leukemia)): 83.18%; Growth Percent (SR (Leukemia)): 88.00%; Growth Percent [9]: 77.42%; Growth Percent (UO-31 renal cancer cells): 86.15%
3 | 39 | C[C@@]12SC[C@@H](C(=O)NCc3ccccc3Br)N1C(=O)c1ccccc12 [4bB] | 83.02 | 99.69 | 99.61 | 94.45 | 88.64 | 107.44 | 103.30 | 22 | 78.46 | 104.28 | 92.33 | 103.50 | 104.70 | 88.23 | 97.39 | 87.26 | 90.98 | 95.65 | 101.37 | Growth Percent (MDA-MB-435 (Melanoma)): 96.92%; Growth Percent (PC-3 (Prostate Cancer)): 78.76%; Growth Percent (SNB-75 (CNS Cancer)): 92.47%; Growth Percent (786-0 (Renal Cancer)): 101.65%; Growth Percent (MOLT-4 (Leukemia)): 82.96%; Growth Percent (SR (Leukemia)): 80.60%; Growth Percent [9]: 77.15%; Growth Percent (UO-31 renal cancer cells): 86.71%
